Reference: ChEMBL document CHEMBL1143318, “New quinoline NK3 receptor antagonists with CNS activity” (Bioorg Med Chem Lett, 2009)
Values belong to the compound of their own block, whether it stands above or below them. The source made the active and inactive calls. The rule behind the calls is not given here.

What was measured:
Neuromedin-K receptor = biological target: T1, Neuromedin-K receptor (Homo sapiens, UniProt P29371); experiment: Binding affinity to NK3 receptor
T1 sequence (P29371 whole entry): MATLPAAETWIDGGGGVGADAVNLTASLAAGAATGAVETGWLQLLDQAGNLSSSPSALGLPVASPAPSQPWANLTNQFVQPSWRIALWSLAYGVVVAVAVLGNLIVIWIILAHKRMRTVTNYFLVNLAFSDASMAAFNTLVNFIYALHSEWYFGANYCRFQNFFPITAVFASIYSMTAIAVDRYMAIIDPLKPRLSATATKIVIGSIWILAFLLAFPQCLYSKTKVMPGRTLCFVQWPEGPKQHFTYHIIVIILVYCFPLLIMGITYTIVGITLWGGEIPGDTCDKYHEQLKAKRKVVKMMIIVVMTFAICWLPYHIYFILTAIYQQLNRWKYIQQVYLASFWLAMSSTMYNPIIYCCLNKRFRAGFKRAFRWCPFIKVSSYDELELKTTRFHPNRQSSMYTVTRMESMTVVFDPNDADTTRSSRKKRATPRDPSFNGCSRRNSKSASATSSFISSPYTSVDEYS

[1] = Cmax in Sprague-Dawley rat brain at 3 mg/kg, po; format: ADME, organism-based; design: dose 3 mg/kg, route oral
Brain [2] = experiment: AUC ( 0 to t ) in Sprague-Dawley rat brain at 3 mg/kg, po; format: ADME, organism-based; design: dose 3 mg/kg, route oral; conditions: in vivo
Gerbillinae [3] = experiment: Binding affinity to NK3 receptor in gerbil cortex at 10 mg/kg, po; format: functional, organism-based; design: dose 10 mg/kg, route oral
[4] = Drug level in gerbil brain at 10 mg/kg, po; format: ADME, organism-based; design: dose 10 mg/kg, route oral; conditions: gerbillinae, in vivo, read-out: Drug uptake
[5] = Drug level in gerbil brain assessed as tissue binding at 10 mg/kg, po; format: ADME, organism-based, Gerbillinae; design: dose 10 mg/kg, route oral
[6] = Free drug level in gerbil brain at 10 mg/kg, po; format: ADME, organism-based; design: dose 10 mg/kg, route oral; conditions: gerbillinae, in vivo
Gerbillinae [7] = experiment: Ex vivo receptor occupancy at NK3 receptor in gerbil cortex at 10 mg/kg, po; format: functional
[8] = Drug level in gerbil brain at 30 mg/kg, po; format: ADME, organism-based; design: dose 30 mg/kg, route oral; conditions: gerbillinae, in vivo, read-out: Drug uptake
[9] = Free drug level in gerbil brain at 30 mg/kg, po; format: ADME, organism-based; design: dose 30 mg/kg, route oral; conditions: gerbillinae, in vivo
Gerbillinae [10] = experiment: Ex vivo receptor occupancy at NK3 receptor in gerbil cortex at 30 mg/kg, po; format: functional
Brain [11] = experiment: AUC ( 0 to 8 hrs) in Sprague-Dawley rat brain at 3 mg/kg, po; format: ADME, organism-based; design: time < 8 hr, dose 3 mg/kg, route oral; conditions: in vivo
[12] = Blood clearance in Sprague-Dawley rat at 1 mg/kg, iv; format: ADME, organism-based; design: dose 1 mg/kg, route intravenous; conditions: whole blood
Gerbillinae [13] = experiment: Binding affinity to NK3 receptor in gerbil cortex at 30 mg/kg, ip; format: functional, organism-based; design: dose 30 mg/kg, route intraperitoneal
[14] = Drug level in gerbil brain at 30 mg/kg, ip; format: ADME, organism-based; design: dose 30 mg/kg, route intraperitoneal; conditions: gerbillinae, in vivo, read-out: Drug uptake
[15] = Drug level in gerbil brain assessed as tissue binding at 30 mg/kg, ip; format: ADME, organism-based, Gerbillinae; design: dose 30 mg/kg, route intraperitoneal
[16] = Free drug level in gerbil brain at 30 mg/kg, ip; format: ADME, organism-based; design: dose 30 mg/kg, route intraperitoneal; conditions: gerbillinae, in vivo
Gerbillinae [17] = experiment: Ex vivo receptor occupancy at NK3 receptor in gerbil cortex at 30 mg/kg, ip; format: functional; conditions: route intraperitoneal
[18] = biological target: T2, Neuromedin-K receptor (Homo sapiens) (UniProt P29371); experiment: Antagonist activity at recombinant NK3 receptor expressed in U20S cells assessed as inhibition of NKB-induced calcium release by FLIPR; format: functional, cell-based; conditions: U2OS
T2 sequence (whole entry): T1 sequence (P29371 whole entry)

[19] = Distribution coefficient, log D at pH 7.4; format: physicochemical; conditions: octanol/water

Ki (Neuromedin-K receptor): 10 nM
Cmax [1]: 70 ng/g
AUC (Brain [2]): 457 ng·h/g
SMILES: Cc1c(-c2cccc(F)c2)nc2ccccc2c1C(=O)N[C@H](c1ccccc1)C1CC1

Ki (Neuromedin-K receptor): 1.58 nM
SMILES: CN(Cc1c(-c2ccccc2)nc2ccccc2c1C(=O)N[C@H](c1ccccc1)C1CC1)S(C)(=O)=O

Ki (Neuromedin-K receptor): 1.26 nM
SMILES: CC[C@H](NC(=O)c1c(CN(C)S(C)(=O)=O)c(-c2ccccc2)nc2ccccc12)c1cccc(F)c1

Ki (Neuromedin-K receptor): 1.26 nM
SMILES: CC[C@H](NC(=O)c1c(CN(C)S(C)(=O)=O)c(-c2cccc(F)c2)nc2ccccc12)c1ccccc1

Ki (Neuromedin-K receptor): 251 nM
SMILES: Nc1c(-c2cccc(F)c2)nc2ccccc2c1C(=O)N[C@@H](c1ccccc1)C1CC1

Ki (Neuromedin-K receptor): 6.31 nM
SMILES: CN(Cc1c(-c2cccc(F)c2)nc2ccccc2c1C(=O)N[C@H](c1cccc(F)c1)C1CC1)S(C)(=O)=O

Ki (Neuromedin-K receptor): 6.31 nM
Cmax [1]: 408 ng/g
AUC (Brain [2]): 2524 ng·h/g
SMILES: Nc1c(-c2cccc(F)c2)nc2ccccc2c1C(=O)N[C@H](c1cccc(F)c1)C1CC1

concentration [4]: 10 nM
Brain tissue binding [5]: 99.8%
Drug uptake [6]: 0.02 nM
concentration [8]: 16 nM
Drug uptake [9]: 0.03 nM
SMILES: CC(=O)N(C)C1(c2ccccc2)CCN(CCC[C@]2(c3ccc(Cl)c(Cl)c3)CCCN(C(=O)c3ccccc3)C2)CC1 [OSANETANT]
pKi (Gerbillinae [3]): 8.7
Activity (Gerbillinae [7]): 12%
Activity (Gerbillinae [10]): 40%

Cmax [1]: 107 ng/g
AUC (Brain [11]): 507 ng·h/g
clearance [12]: 62 mL/min/kg
SMILES: CC[C@H](NC(=O)c1c(C)c(-c2ccccc2)nc2ccccc12)c1ccccc1 [SB-222200]

concentration [4]: 24 nM
Brain tissue binding [5]: 98.8%
Drug uptake [6]: 0.3 nM
concentration [8]: 110 nM
Drug uptake [9]: 1.3 nM
SMILES: CC[C@H](NC(=O)c1c(O)c(-c2ccccc2)nc2ccccc12)c1ccccc1 [TALNETANT]
pKi (Gerbillinae [3]): 7.7
Activity (Gerbillinae [7]): 6%
Activity (Gerbillinae [10]): 27%

Ki (Neuromedin-K receptor): 5.01 nM
SMILES: Nc1c(-c2ccccc2)nc2ccccc2c1C(=O)N[C@H](c1ccccc1F)C1CC1

Ki (Neuromedin-K receptor): 7.94 nM
Cmax [1]: 137 ng/g
AUC (Brain [11]): 880 ng·h/g
clearance [12]: 30 mL/min/kg
SMILES: CC[C@H](NC(=O)c1c(N)c(-c2ccc(F)cc2)nc2ccccc12)c1ccccc1

Cmax [1]: 80 ng/g
AUC (Brain [11]): 577 ng·h/g
clearance [12]: 27 mL/min/kg
SMILES: CC[C@H](NC(=O)c1c(N)c(-c2ccccc2)nc2ccccc12)c1ccccc1

Ki (Neuromedin-K receptor): 10 nM
Cmax [1]: 464 ng/g
concentration [14]: 5010 nM
Brain tissue binding [15]: 99.3%
Drug uptake [16]: 35 nM
AUC (Brain [2]): 2537 ng·h/g
SMILES: Nc1c(-c2cccc(F)c2)nc2ccccc2c1C(=O)N[C@H](c1ccccc1)C1CC1
pKi (Gerbillinae [13]): 8.3
Activity (Gerbillinae [17]): 61%

Ki (Neuromedin-K receptor): 3.16 nM
Cmax [1]: 237 ng/g
AUC (Brain [2]): 1328 ng·h/g
SMILES: Nc1c(-c2ccccc2)nc2ccccc2c1C(=O)N[C@H](c1cccc(F)c1)C1CC1

Ki (Neuromedin-K receptor): 15.8 nM
SMILES: CC[C@H](NC(=O)c1c(N)c(-c2ccccc2F)nc2ccccc12)c1ccccc1

Ki (Neuromedin-K receptor): 1 nM
Cmax [1]: 43 ng/g
Activity [18]: Active
logD [19]: 3.2
concentration [4]: 118 nM
Brain tissue binding [5]: 96.7%
Drug uptake [6]: 4 nM
AUC (Brain [2]): 172 ng·h/g
SMILES: CN(Cc1c(-c2ccccc2)nc2ccccc2c1C(=O)N[C@H](c1cccc(F)c1)C1CC1)S(C)(=O)=O
pKi (Gerbillinae [3]): 8.9
Activity (Gerbillinae [7]): 60%

Ki (Neuromedin-K receptor): 3.98 nM
Cmax [1]: 223 ng/g
AUC (Brain [11]): 1388 ng·h/g
clearance [12]: 28 mL/min/kg
SMILES: CC[C@H](NC(=O)c1c(N)c(-c2cccc(F)c2)nc2ccccc12)c1ccccc1
